Laboratory results: patent US20100120708A1, “Combination therapy comprising ZD6474 and gemcitabine for anti-cancer therapy” (priority 2002, published 2010)
Where “and” joins values, the source holds several entries; their conditions need not be identical. Equal values may be shown once. Where a name gives a salt, the structure may show the parent alone.

System: L 3.6 μl human pancreatic cancer cells
Test: Effects of ZD6474 and gemcitabine therapy on primary pancreatic tumour growth and metastases growing orthotopically in nude mice
Assay type: in vivo
Settings: sacrificed day 32, ZD6474 50 mg/kg oral daily, gemcitabine 100 mg/kg i.p. twice weekly; for Incidence Pancreas (incidence of pancreatic tumours): orthotopic injection into pancreas, treatment from 8 days post-tumour injection; for Incidence Pancreas (incidence of pancreatic tumours) / LN Met (incidence of lymph node metastases) / Liver Met (incidence of liver metastases) / Peritoneal Carcinosis (incidence): animals affected/animals in group; for LN Met (incidence of lymph node metastases) / Liver Met (incidence of liver metastases) / Peritoneal Carcinosis (incidence): orthotopic; for Tumour Weight Average +/− std dev: primary pancreatic tumour weight, control 1231 mg; for Body Weight Average +/− std dev: control 21.4 g
Experimental: Model to Investigate Effects of ZD6474 and Gemcitabine Therapy on Primary Pancreatic Tumour Growth and Metastases Growing Orthotopically in Nude Mice
Nude mice (n=10 per group) were injected with 1×10^6 […] human pancreatic cancer cells into the pancreas. The mice received one of the following treatment regimes 8 days post-tumour injection:
Group 1—control group received saline by daily oral application; Group 2—a single daily dose of ZD6474 (50 mg/kg oral gavage); Group 3—gemcitabine twice weekly (on days 2 and 5 of each treatment week) (100 mg/kg by intraperitoneal injection (i.p.)); Group 4—a single daily dose of ZD6474 (50 mg/kg oral gavage) and twice weekly gemcitabine (on days 2 and 5 of each treatment week) (GEM: 100 mg/kg i.p.).
The animals were sacrificed 32 days after tumour cell injection.
The incidence of pancreatic tumours, liver metastases, lymph node metastases and peritoneal carcinosis was evaluated. The primary pancreatic tumour weight was measured. All macroscopically enlarged lymph nodes and liver nodules were confirmed by histopathology (H&E staining).

Compound	Incidence Pancreas (incidence of pancreatic tumours)	LN Met (incidence of lymph node metastases)	Liver Met (incidence of liver metastases)	Peritoneal Carcinosis (incidence)	Tumour Weight Average +/− std dev	Tumour Weight Average +/− std dev (listed as gemcitabine) [mg]	Body Weight Average +/− std dev [g]
Nc1ccn([C@@H]2O[C@H](CO)[C@@H](O)C2(F)F)c(=O)n1 [Gemcitabine, 2′-deoxy-2′,2′-difluorocytidine monohydrochloride (β-isomer)]	9/9	9/9	4/9	3/9	836 ± 291 mg	836	21.7 ± 2.1
COc1cc2c(Nc3ccc(Br)cc3F)ncnc2cc1OCC1CCN(C)CC1 [ZD6474, 4-(4-bromo-2-fluoroanilino)-6-methoxy-7-(1-methylpiperidin-4-ylmethoxy)quinazoline]	10/10	3/10	1/10	1/10	541 mg and 541 ± 201 mg		19.2 ± 2.9
